In ChEMBL document CHEMBL6121020, “Neuroprotective Indole Alkaloids from the Soil-Derived Fungus Trichocladium sp. XZ8” (2025):
Active and inactive are the calls of the source. The rule behind the calls is not given here.

How the values were obtained:
PC-12 [1] = assay: Neuroprotective activity against RSL3-induced ferroptosis in rat PC-12 cells assessed as increase in survival rate at 10 uM preincubated with RSL3 stimulation followed by compound addition and measured after 24 hrs by CCK-8 assay (reference value: 54%); format: functional
PC-12 [2] = assay: Anti-ferroptosis activity against RSL3-induced ferroptosis in rat PC-12 cells assessed as decrease in lipid peroxidation at 10 uM by BODIPY-C11 581/591 staining based fluorescence microscopic analysis; format: functional, cell-based
PC-12 [3] = assay: Anti-ferroptosis activity against RSL3-induced ferroptosis in rat PC-12 cells assessed as increase in GSH level at 10 uM preincubated with compound for 24 hrs followed by RSL3 stimulation and measured after 24 hrs by […] method; format: functional, cell-based; conditions: time 48.0 hrs
PC-12 [4] = assay: Effect on SLC7A11 expression in RSL3-induced rat PC-12 cells at 10 uM preincubated with compound for 24 hrs followed by RSL3 stimulation and measured after 24 hrs by Western blotting analysis; format: functional, cell-based; conditions: time 48.0 hrs
PC-12 [5] = assay: Downregulation of NCOA4 level in RSL3-induced rat PC-12 cells at 10 uM preincubated with compound for 24 hrs followed by RSL3 stimulation and measured after 24 hrs by Western blotting analysis; format: functional, cell-based; conditions: time 48.0 hrs
PC-12 [6] = assay: Upregulation of ferritin level in RSL3-induced rat PC-12 cells at 10 uM preincubated with compound for 24 hrs followed by RSL3 stimulation and measured after 24 hrs by Western blotting analysis; format: functional, cell-based; conditions: time 48.0 hrs
PC-12 [7] = assay: Upregulation of SLC7A11 expression in RSL3-induced rat PC-12 cells at 10 uM preincubated with compound for 24 hrs followed by RSL3 stimulation and measured after 24 hrs by Western blotting analysis; format: functional, cell-based; conditions: time 48.0 hrs
PC-12 [8] = assay: Neuroprotective activity against RSL3-induced ferroptosis in rat PC-12 cells assessed as increase in survival rate at 10 uM preincubated with RSL3 stimulation followed by compound addition and measured after 24 hrs by CCK-8 assay; format: functional, cell-based

Compound	Activity (PC-12 [1]) [%]	Activity (PC-12 [2])	Activity (PC-12 [3])	Activity (PC-12 [4])	Activity (PC-12 [5])	Activity (PC-12 [6])	Activity (PC-12 [7])	Activity (PC-12 [8])
C/C(=C\Cc1ccc2c(c1)NC(=O)C2)C(=O)O	84	Active	Active	inactive	Active	Active	–	–
CC(C)=CCc1ccc2c(c1)NC(=O)C2	77	–	–	–	–	–	–	–
C/C=C(C)/C=C(\C)[C@H]1C(C)=C[C@]2(C)C[C@H](C)CC[C@H]2[C@@H]1C(=O)[C@H]1C(=O)NC(=O)[C@@H]1Cc1c[nH]c2ccccc12	–	Active	–	–	Active	Active	Active	Active
OCc1c[nH]c2ccccc12	–	–	–	–	–	–	–	Active
CC(=O)NCCc1ccc(O)cc1	83	–	–	–	–	–	–	–
